According to patent US20240207202A1, “COMBINATION THERAPIES TARGETING MITOCHONDRIAL BIOGENESIS FOR CANCER THERAPY” (The Wistar Institute of Anatomy and Biology, priority 2015, published 2024):

What was measured:
[1] = system: mitochondrial respiration; experiment: Real-time oxygen consumption rates (Seahorse XF 24) in WM9 cells; type: cell-based, human; details: WM9, 72 h, Gamitrinib 1 μM added to PLX4720 10 μM and PD0325901 1 μM
Experimental: FIGS. 5A-5I. Gamitrinib, An Inhibitor of Mitochondrial Hsp90-directed Protein Folding, Suppresses Mitochondrial Biogenesis and Bioenergetics (A) Induction of apoptosis and cell death by PSVue 643 staining in WM9 melanoma cells treated for 72 h with the combination of Gamitrinib (Gami), Rapamycin, Phenformin (Phen), BEZ235 or 2,4-DNP at titrated doses and PLX4720 at 10 μM, PD0325901 at 1 μM and Gamitrinib at 2.5 μM. Cells treated with DMSO were used as the control. The data represent the average of 2 biological replicates. (B) Relative cell viability assessed by CellTiter Glo in WM9 cells treated for 72 h with DMSO, PLX4720 at 10 μM or the combination of PLX4720 at 10 μM and PD0325901 at 1 μM together with Gamitrinib at titrated doses. (C) Immunoblotting of proteins related to OxPhos, glycolysis, autophagy and the MAPK pathway in WM9 cells treated with PLX4720 at 10 μM and Gamitrinib as single inhibitors or in combination during a time course of 72 h. Cells treated with DMSO are used as the control. (D) Real-time oxygen consumption in WM9 cells subjected to the metabolic stress test with Seahorse XF 24 Analyzer. […] (H) Relative gene expression of 7 representative glycolysis genes assessed by qRT-PCR in WM9 cells treated for 48 h with DMSO or the combination of PLX4720 at 10 μM and PD0325901 at 1 μM with or without the addition of Gamitrinib at 2.5 μM. […]

SOD2 = SOD2 expression in WM9 cells (qRT-PCR, immunoblot); type: cell-based, human; details: WM9, 72 h, Gamitrinib 1 μM with MAPK pathway inhibitors
Experimental: (§1) One μg total mRNA was reverse transcribed using a Maxima First Strand cDNA Synthesis Kit for qRT-PCR (Thermo Fisher). Fast SYBR® Green Master Mix (Life Technologies) was used with cDNA template and primers to evaluate the expression of target genes and GAPDH. Primers used were purchased from Integrated DNA Technologies. Amplifications were performed using an Applied Biosystems® 7500 Real-Time PCR System (Life Technologies). All experiments were performed in triplicate. Expression ratios of controls were normalized to 1. Please see Extended Experimental Procedures for the list of PCR primer sequences.
(§2) Cells were washed with ice-cold PBS containing 100 μM Na3VO4 and scraped off culture dishes. After centrifugation, cell pellets were lysed in buffer containing 10 mM Tris-HCl, pH 7.8, 150 mM NaCl, 1 mM EDTA, 1% Nonidet P-40, 1 mM Na3VO4 and protease inhibitors (Roche complete protease inhibitor tablets). Lysates were cleared by micro-centrifugation and protein concentrations were determined with Protein Assay Dye Reagent Concentrate (Bio-Rad). For western blots, 25 μg of each lysate were run on 15-well 10% or 12% SDS-PAGE gels and transferred onto nitrocellulose membranes using a dye fast Trans-BlotR Turbo™ transfer system (Bio-Rad). […]

M-MITF = M-MITF gene expression by qRT-PCR in WM9 cells; type: cell-based, human; details: WM9, 48 h, Gamitrinib 1 μM added to PLX4720 10 μM and PD0325901 1 μM
Experimental: as §1

WM4265-2 cells = experiment: Tumor volume of WM4265-2 xenografts; type: in vivo, mice; details: WM4265-2 xenografts (immunotherapy-progressed patient PDX line); Gamitrinib 10 mg/kg
Experimental: Mice were xenografted with WM4265-2 cells until tumors were established and then treated with Gamitrinib (10 mg/kg).

[2] = system: HKI, HKII, PDHE1, PDK1, PDK2, LDHA, PKM1, GLUT1 and GLUT3; experiment: Expression of glycolysis regulators in WM9 cells (qRT-PCR, immunoblot); type: cell-based, human; details: WM9, Gamitrinib combined with PLX4720
Experimental: as §1, §2

Gamitrinib was tested, and the “oxygen consumption rates (basal respiration, proton leak, ATP production, maximal respiration, spare respiratory capacity)” value [1] was “significantly inhibited all key parameters of OCR”, the “SOD2 expression compared to MAPK pathway inhibitors alone, mRNA and protein” value (SOD2) was “up-regulation of SOD2” and the “M-MITF expression up-regulated by MAPK pathway inhibitors” value (M-MITF) was “further down-regulated”. The tumor growth (WM4265-2 cells) was “significantly inhibited tumor growth” and the “expression of key regulators of aerobic glycolysis, mRNA and protein” value [2] was “substantially down-regulated”.
